Results on 7 compounds are retold here after ChEMBL document CHEMBL4145573, “Antinociceptive Diterpenoids from the Leaves and Twigs of Rhododendron decorum” (2018).

For assay [1], the system named is Mus musculus. In words: Antinociceptive activity in Kunming mouse assessed as inhibition of acetic acid-induced writhes at 0.8 mg/kg, ip pretreated for 15 mins followed by acetic acid challenge measured for 30 mins relative to control. Type of assay: functional.
Assay [2] relates to Mus musculus. The experiment in a line: Antinociceptive activity in Kunming mouse assessed as inhibition of acetic acid-induced writhes at 10 mg/kg, ip pretreated for 15 mins followed by acetic acid challenge measured for 30 mins. Type of assay: functional, organism-based.
Assay [3] concerns Mus musculus. The experiment in a line: Antinociceptive activity in Kunming mouse assessed as inhibition of acetic acid-induced writhes at 0.08 mg/kg, ip pretreated for 15 mins followed by acetic acid challenge measured for 30 mins relative to control. The assay is classed as functional.

The source made the active and inactive calls. No cut-off for these calls is given here.

What is called inhibition in vivo is the change of the read-out against control, counted positive when it falls.

Consider `CC1(C)[C@@H](O)[C@H](O)[C@H]2[C@](C)(O)[C@@H]3CC[C@]4(O)C[C@@]3(C[C@@H](O)[C@@]21O)C[C@@]4(C)O`, for which the inhibition in vivo at 0.8 mg/kg with Mus musculus [1] is 68%.
For `C=C1C[C@]23C[C@H]1CC[C@H]2C(=C)[C@@H]1C[C@H](O[C@@H]2O[C@H](CO)[C@@H](O)[C@H](O)[C@H]2O)C(C)(C)[C@@]1(O)[C@H](O)C3`, the inhibition result in the assay on Mus musculus [2] is “Active”.
`CC1(C)[C@H]2O[C@H]2[C@H]2[C@](C)(O)[C@@H]3CC[C@]4(O)C[C@@]3(C[C@@H](O)[C@@]21O)C[C@@]4(C)O`: the inhibition in vivo at 0.08 mg/kg in the assay with Mus musculus [3] came out at 78%.
For the compound `C=C1[C@H]2C[C@@H](O)C(C)(C)[C@H](O)[C@@H]2C[C@@]23C[C@@](O)(CC[C@@H]12)[C@](C)(O)C3`, the inhibition entry with Mus musculus [2] is “Active”.
With `C=C1[C@H]2CC[C@]3(O)C[C@@]2(C[C@@H](O)[C@@]2(O)[C@H]1C[C@H](O)C2(C)C)C[C@@]3(C)O`, in the assay on Mus musculus [2], the inhibition result was “Active”.
As to `C=C1[C@@H]2[C@@H](O)[C@H](O)C(C)(C)[C@@]2(O)[C@H](O)C[C@@]23C[C@@](O)(CC[C@@H]12)[C@](C)(O)C3`, the inhibition result in the assay on Mus musculus [2] is “Active”.
As for `CN1CC[C@]23c4c5ccc(O)c4O[C@H]2[C@@H](O)C=C[C@H]3[C@H]1C5` [MORPHINE], the inhibition in vivo at 0.8 mg/kg in the assay with Mus musculus [1] is 86%.
